Source: US9890185B2, “Urea derivatives useful as kinase inhibitors” (Respivert Limited, priority 2013, dated 2018)

Tests used:
[1] = target: Lck (Homo sapiens (Human), UniProt P06239); assay: KINOMEscan enzyme binding assay (Lck); conditions: KINOMEscan technology; read-out: Dissociation Constant, Lck
Description: (§1) Kinase enzyme binding activities of compounds disclosed herein may be determined using a proprietary assay which measures active site-directed competition binding to an immobilized ligand (Fabian, M. A. et al., Nature Biotechnol., 2005, 23:329-336). These assays may be conducted by DiscoverX (formerly Ambit; San Diego, Calif.). The percentage inhibition produced by incubation with a test compound may be calculated relative to the non-inhibited control.

[2] = target: p38 MAPK β (Homo sapiens (Human), UniProt Q15759); assay: KINOMEscan enzyme binding assay (p38 MAPKβ); conditions: KINOMEscan technology; read-out: Dissociation Constant, p38 MAPK β
p38 MAPK β, sequence (Q15759 whole entry): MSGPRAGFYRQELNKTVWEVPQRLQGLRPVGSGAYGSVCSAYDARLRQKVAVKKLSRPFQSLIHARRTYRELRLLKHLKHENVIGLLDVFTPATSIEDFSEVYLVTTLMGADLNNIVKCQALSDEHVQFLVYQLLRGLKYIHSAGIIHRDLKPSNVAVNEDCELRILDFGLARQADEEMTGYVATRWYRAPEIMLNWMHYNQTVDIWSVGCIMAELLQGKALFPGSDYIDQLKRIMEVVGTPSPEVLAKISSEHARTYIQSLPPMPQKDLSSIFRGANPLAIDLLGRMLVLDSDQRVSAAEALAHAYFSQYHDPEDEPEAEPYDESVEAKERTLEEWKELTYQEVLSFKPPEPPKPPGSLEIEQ
Description: as §1

[3] = tested on: TNBS-induced colitis; assay: TNBS-induced colitis in mice (in vivo assay iv); parameters: species or system BDF1 mice; TNBS Ulcer grade / TNBS LP inflammation: scale not given here; conditions: SMEDDS vehicle; for Activity in in vivo model of colonic inflammation (histopathology analysis) / Inflammatory cell infiltrate in the reticular and laminar propria zone: TNBS colitis over 2 days; for Ulcer grade and epithelial repair compared to the vehicle control: dosed orally at 5 mg/kg, 2 days; for TNBS LP inflammation / TNBS Ulcer grade: mice, 5 mg/kg orally, conducted over 2 days, histopathology
Description: Non-fasted, 10-12 week old, male BDF1 mice are dosed by oral gavage twice daily with either vehicle (5 mL/kg), reference item (Budesonide 2.5 mg/kg) or test compound (1 or 5 mg/kg) one day before (Day −1) stimulation of the inflammatory response by treatment with 2,4,6-trinitrobenzenesulphonic acid (TNBS) (15 mg/mL in 50% ethanol/50% saline). On Day 0 of the study TNBS (200 μL) is administered intra-colonically via a plastic catheter with BID dosing of the vehicle, reference or test compound continuing for 2 or 4 days. During the study animals are weighed every day and stool observations are made and recorded as a score, based on stool consistency. At the time of sacrifice on Day 2 (or Day 4) the large intestine is removed and the length and weight recorded. Sections of the colon are taken for histopathology scoring to determine disease severity.

[4] = tested on: endotoxin (LPS)-induced uveitis; assay: Endotoxin-induced uveitis in rats (in vivo assay vi); parameters: species or system Lewis rats; conditions: for IL-1β Anterior tissue / IL-1β Posterior tissue: LPS-stimulated rats, topical to eye; for Cell counts: eyes of LPS-stimulated rats, topical
Description: Male, Lewis rats (6-8 weeks old, Charles River UK Limited) are housed in cages of 3 at 19-21° C. with a 12 h light/dark cycle (07:00/19:00) and fed a standard diet of rodent chow and water ad libitum. […] Untreated rats are injected with PBS. […] Before administration, the solution or suspension to be administered is agitated for 5 minutes to ensure a uniform suspension. 6 hours after LPS dosing, animals are euthanized by overdose with pentobarbitone (i.v.). Following euthanasia, the right eye of each animal is enucleated and dissected into front (anterior) and back (posterior) sections around the lens. Each section is weighed and homogenised in 500 μL of sterile phosphate buffered saline followed by 20 minutes centrifugation at 12000 rpm at 4° C. The resulting supernatant is divided into 3 aliquots and stored at −80° C. until subsequent cytokine analysis by R&D DuoSet ELISA.

Lck, sequence (P06239 whole entry): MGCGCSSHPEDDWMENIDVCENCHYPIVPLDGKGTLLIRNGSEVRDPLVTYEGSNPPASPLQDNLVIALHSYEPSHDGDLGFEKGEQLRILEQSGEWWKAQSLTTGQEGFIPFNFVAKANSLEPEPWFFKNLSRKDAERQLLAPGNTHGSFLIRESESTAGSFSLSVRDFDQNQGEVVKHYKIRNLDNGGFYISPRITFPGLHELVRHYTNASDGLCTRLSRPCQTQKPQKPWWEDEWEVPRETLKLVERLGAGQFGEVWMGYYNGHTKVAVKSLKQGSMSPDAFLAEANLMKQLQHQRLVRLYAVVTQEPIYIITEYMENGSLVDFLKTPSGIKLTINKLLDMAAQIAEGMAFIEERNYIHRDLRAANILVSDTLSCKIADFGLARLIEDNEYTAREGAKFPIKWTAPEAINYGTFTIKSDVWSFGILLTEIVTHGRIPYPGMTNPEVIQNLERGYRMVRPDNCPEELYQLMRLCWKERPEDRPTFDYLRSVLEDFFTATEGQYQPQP

Kd [1] [nM] | Kd [2] [nM] | Compound | Activity in in vivo model of colonic inflammation (histopathology analysis) [3] | Inflammatory cell infiltrate in the reticular and laminar propria zone [3] | Ulcer grade and epithelial repair compared to the vehicle control [3] | TNBS LP inflammation [3] | TNBS Ulcer grade [3] | IL-1β Anterior tissue ([4]; 0.1 mg/mL) [pg/mL] | IL-1β Posterior tissue ([4]; 0.1 mg/mL) [pg/mL] | IL-1β Anterior tissue ([4]; 1 mg/mL) [pg/mL] | IL-1β Posterior tissue ([4]; 1 mg/mL) [pg/mL] | Cell counts ([4]; 0.1 mg/mL) | Cell counts ([4]; 1 mg/mL) | Cytokine levels in anterior and posterior segments of the eyes ([4]; rats treated with intravitreal endotoxin LPS)
3.6 | 57 | COc1c(NC(=O)Nc2ccc(Oc3ccnc(Nc4ccccc4)c3)c3ccccc23)cc(C(C)(C)C)cc1[S+](C)[O-] (racemic) [Example 12, 1-(5-(tert-Butyl)-2-methoxy-3-(methylsulfinyl)phenyl)-3-(4-((2-(phenylamino)pyridin-4-yl)oxy)naphthalen-1-yl)urea] |  |  |  |  |  |  |  |  |  |  |  | 
8.6 | 340 | COCCOCCOCCOc1cc(Nc2cc(Oc3ccc(NC(=O)Nc4cc(C(C)(C)C)cc(S(C)(=O)=O)c4OC)c4ccccc34)ccn2)cc(OC)c1 [Example 9, 1-(5-(tert-Butyl)-2-methoxy-3-(methylsulfonyl)phenyl)-3-(4-((2-((3-methoxy-5-(2-(2-(2-methoxyethoxy)ethoxy)ethoxy)phenyl)amino)pyridin-4-yl)oxy)naphthalen-1-yl)urea] | significant activity | marked reductions | marked improvements | 2.9 ± 0.3 | 3.6 ± 0.3 |  |  |  |  |  |  | 
 |  | COc1c(CC(N)=O)cc(C(C)(C)C)cc1NC(=O)Nc1ccc(Oc2ccnc(Nc3ccccc3)c2)c2ccccc12 [Example 13, 2-(5-(tert-Butyl)-2-methoxy-3-(3-(4-((2-(phenylamino)pyridin-4-yl)oxy)naphthalen-1-yl)ureido)phenyl)acetamide] | significant activity | marked reductions | marked improvements | 2.8 ± 0.5 | 2.6 ± 0.7 |  |  |  |  |  |  | 
 |  | COc1c(NC(=O)Nc2ccc(Oc3ccnc(Nc4ccccc4)c3)c3ccccc23)cc(C(C)(C)C)cc1C(=O)NCCN1CCOCC1 [Example 14, 5-(tert-Butyl)-2-methoxy-N-(2-morpholinoethyl)-3-(3-(4-((2-(phenylamino)pyridin-4-yl)oxy)naphthalen-1-yl)ureido)benzamide] | significant activity | marked reductions |  | 3.6 ± 0.2 | 3.5 ± 0.5 |  |  |  |  |  |  | 
 |  | COc1cc(Nc2cc(Oc3ccc(NC(=O)Nc4cc(C(C)(C)C)cc(CC(N)=O)c4OC)c4ccccc34)ccn2)cc(OC)c1 [Example 30, 2-(5-(tert-Butyl)-3-(3-(4-((2-((3,5-dimethoxyphenyl)amino)pyridin-4-yl)oxy)naphthalen-1-yl)ureido)-2-methoxyphenyl)acetamide] | significant activity | marked reductions | marked improvements | 2.5 ± 0.4 | 3.1 ± 0.4 |  |  |  |  |  |  | 
1.2 |  | COc1cc(Nc2cc(Oc3ccc(NC(=O)Nc4cc(C(C)(C)C)cc(P(C)(C)=O)c4OC)c4ccccc34)ccn2)cc(C(N)=O)c1 [Example 37, 3-((4-((4-(3-(5-(tert-butyl)-3-(dimethylphosphoryl)-2-methoxyphenyl)ureido)-naphthalen-1-yl)oxy)pyridin-2-yl)amino)-5-methoxybenzamide] |  |  |  |  |  | 480.1 ± 113.7 | 319.6 ± 64.8 | 330.4 ± 94.2 | 285.8 ± 96.4 | 39.1 ± 7.1 | 32.6 ± 9.5 | significantly reduced
